Source: patent US10857155B2, “Compounds targeting proteins, compositions, methods, and uses thereof” (BioTheryX, Inc., priority 2017, dated 2020)

Experiments:
Type in all cases: cell-based
IL-6 = IL-6 in LPS-induced PBMCs / CD14+ monocytes, Meso Scale assay
Experimental: FIG. 3 represents the activity against IL-6 in CD14, monocytes, plated in 96 well plates and pretreated with Compounds 1, 2, or 3, or pomalidomide, for 1 h and then induced with 100 ng/mL LPS for 18-24 h. Cytokines were measured according to MesoScale protocol. Negative control wells were treated with DMSO. Cells were treated with compound (at the indicated concentrations) or 10 μM pomalidomide. Compound activity was measured as a percentage of LPS-induced activity.
(§1) Either frozen primary blood mononuclear cells (PBMCs) or frozen CD14+ mobilized peripheral blood monocytes were purchased from AllCells (PB003F, Normal Peripheral Blood MNC (Alameda, Calif.)). Cells were quick thawed, washed 1-time with RPMI-1640 (10% FBS/1% Pen-Strep) and plated in 96 well plates at 200,000 cells per well. Cells were pretreated with DMSO only, pomalidomide or the indicated compounds for 1 h and then induced with 100 ng/mL lipopolysaccharide (LPS) for 18-24 h. The supernatant was analyzed for IL-1 beta, IL-6, and TNF-alpha, using Meso Scale assay according to manufacturer's protocol. The negative control wells were treated with DMSO.
(§2) Compound activity is measured as fold difference from the DMSO control. Compounds 1, 2, and 3 each reduced expression of IL-1-b in LPS-stimulated PBMCs by over 80% at 1 uM, relative to a just under 80% reduction with pomalidomide at 10 μM (FIG. 2).

H1048 cells = assay: Cell viability assay (CellTiter-Glo), H1048 cells; conditions: Homo sapiens, NCI-H1048, 72 h, 3 days; for viability at 1 µM: H1048, 1 μM; for viability at 10 µM: H1048, 10 μM
Experimental: (§3) Molm-13 cells were cultivated in RPMI-1640 (10% FBS/1% pen-strep) and were plated in white walled 96-well plates at 20,000 cells/well. H1048 cells were cultured in DMEM:F12 media supplemented with 5% fetal bovine serum, insulin, transferrin, sodium selenite, hydrocortisone, estradiol, penicillin and streptomycin, and were plated in white walled 96-well plates at 20,000 cells/well.
(§4) Cells were treated with compound at the indicated concentration or DMSO (control) and the cultures were incubated for 3 days at 37° C. and 5% CO2. Following the incubation period, 100 μL of CellTiterGlow (CTG) reagent (CellTiter-Glo® Luminescent Cell Viability Assay, Promega (Madison, Wis.)) was added to each well. Following a 10 min incubation with shaking, luminescence was measured using a Victor Wallac Luminometer.

GSPT1 = target: T1, GSPT1 (Homo sapiens, UniProt P15170); assay: Western blot analysis of GSPT1 protein levels in Jurkat cells; conditions: DMSO = 100.00; for GSPT1 protein level (% of DMSO control) at 0.1 µM: 100 nM compound; for GSPT1 protein level (% of DMSO control) at 1 µM: 1 uM compound
T1 construct: Whole cell extract was prepared with RIPA buffer according to manufacturer's protocol; endogenous in cells; host or cells: Jurkat cells
T1 sequence (P15170 whole entry): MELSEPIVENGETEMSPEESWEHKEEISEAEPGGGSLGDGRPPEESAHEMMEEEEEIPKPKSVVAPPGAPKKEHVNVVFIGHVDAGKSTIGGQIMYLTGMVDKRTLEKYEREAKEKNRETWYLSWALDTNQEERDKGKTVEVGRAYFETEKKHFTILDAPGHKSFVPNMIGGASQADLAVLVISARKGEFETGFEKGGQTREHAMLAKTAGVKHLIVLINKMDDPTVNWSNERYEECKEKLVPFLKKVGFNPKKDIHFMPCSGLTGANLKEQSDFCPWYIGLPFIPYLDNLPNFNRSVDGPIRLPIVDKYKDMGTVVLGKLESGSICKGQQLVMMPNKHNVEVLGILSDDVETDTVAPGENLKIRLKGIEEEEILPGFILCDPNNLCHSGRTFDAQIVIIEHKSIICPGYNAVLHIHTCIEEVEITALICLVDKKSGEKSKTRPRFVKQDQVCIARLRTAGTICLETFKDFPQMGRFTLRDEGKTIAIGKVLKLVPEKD
Experimental: FIG. 1 represents the activity against CK1α, ikaros, and GPST1 in Jurkat cells, plated in 96 well plates. Cells were pretreated with compounds for 4 h and then lysed and protein levels measure via Western blots. The negative control wells were treated with DMSO. Cells were treated with the indicated compound at the indicated concentration. Compound activity is measured as a decrease in GSPT1 protein levels.
Western Blot Protocol: Cell lines were grown in RPMI 1640 supplemented with streptomycin, penicillin and 10% fetal bovine serum.
Jurkat cells were cultured at approximately 10^6 cells per mL, DMSO or the indicated compound was added to the cells and allowed to incubate for 6-8 h. Whole cell extract was prepared with RIPA buffer according to manufacturer's protocol (Pierce (Dallas, Tex.)). Briefly, ˜2×10^6 cells were washed once in PBS, the cell pellet was resuspended in RIPA buffer and allowed to incubate for 15 min on ice. Cell debris was removed by centrifugation and the cleared whole cell lysate was transferred to a new tube for further analysis.
For western blot analysis, whole cell extracts were separated on 4-12% SDS-polyacrylamide gels, transferred to nitrocellulose and probed with the indicated primary antibodies. Membranes were subsequently washed and probed with the appropriate horseradish peroxidase (HRP)-conjugated secondary antibody. Membranes were subsequently washed and probed with the appropriate IRDye secondary antibodies (LI-COR). The signal was detected using the Odyssey Imaging System (LI-COR).

Molm-13 cells = assay: Cell viability assay (CellTiter-Glo), Molm-13 cells; conditions: for IC50 / effect on cell viability: Molm-13 cells; for IC50: approximate; for viability at 0.6 µM: MOLM-13, 0.6 μM
Experimental: FIG. 5 represents antiproliferative activity in Molm-13 cells. The cells were incubated with Compound 1, 2, or 3 (at the indicated concentration), DMSO, or pomalidomide. Compound activity was measured based on the signal from remaining viable cells.
as §3, §4

TNF-α = assay: TNF-alpha in LPS-induced PBMCs / CD14+ monocytes, Meso Scale assay
Experimental: FIG. 4 represents the activity against TNF-alpha in CD14, monocytes, plated in 96 well plates and pretreated with Compounds 1, 2, or 3, or pomalidomide, for 1 h and then induced with 100 ng/mL LPS for 18-24 h. Cytokines were measured according to MesoScale protocol. The negative control wells were treated with DMSO. Cells were treated with compound (at the indicated concentrations) or 10 μM pomalidomide. Compound activity was measured as a percentage of LPS-induced activity.
as §1, §2

IL-1β = assay: IL-1 beta in LPS-induced PBMCs / CD14+ monocytes, Meso Scale assay
Experimental: FIG. 2 represents the activity against IL-1-beta in CD14 monocytes, plated in 96 well plates and pretreated with Compounds 1, 2, or 3, or pomalidomide, for 1 h and then induced with 100 ng/mL LPS for 18-24 h. Cytokines were measured according to MesoScale protocol. Negative control wells were treated with DMSO. Compound activity was measured as a percentage of LPS-induced activity.
as §1, §2

IL-2 = IL-2 in PBMCs on anti-human CD3 (OKT3) coated plates, Mesoscale analysis; conditions: PBMC, 24 h, relative to DMSO control, read-out: Fold Change IL-2
Experimental: For the IL-2 analysis, 96 well plates were precoated with 1 μg/mL anti-human CD3 antibody (OKT3, eBioscience Inc., San Diego, Calif.). After washing with PBS, compounds were added (50 μL/well) followed by PBMCs diluted at 3-4 million cells/mL (150 μL/well). Plates were incubated for 24 h and the supernatants collected for Mesoscale IL-2 analysis.
as §2

Structure (SMILES): Cc1ccc(NC(=O)NCc2ccc3c(c2)CN([C@H]2CCCC(=O)NC2=O)C3=O)cc1Cl [Compound 1]
- inhibition at 0.1 µM (IL-6): 55%
- viability at 1 µM (H1048 cells): 8.39%
- viability at 10 µM (H1048 cells): 3.51%
- GSPT1 protein level (% of DMSO control) at 0.1 µM (GSPT1): 28.6%
- GSPT1 protein level (% of DMSO control) at 1 µM (GSPT1): 3.63%
- viability at 0.3 µM (Molm-13 cells; Homo sapiens, 72 h, MOLM-13, 0.3 μM, 3 days): 50%
- IC50 (Molm-13 cells; Homo sapiens): ~0.45 µM
- inhibition at 0.1 µM (TNF-α): 75%
- inhibition at 0.1 µM (IL-1β): 70%
- fold induction at 0.1 µM (IL-2): 1.4

Structure (SMILES): Cc1ccc(NC(=O)NCc2ccc3c(c2)CN(C2CCCC(=O)NC2=O)C3=O)cc1 (centres unmarked) [Compound 2]
- inhibition at 0.1 µM (IL-6): 51%
- viability at 1 µM (H1048 cells): 28.3%
- viability at 10 µM (H1048 cells): 4.93%
- GSPT1 protein level (% of DMSO control) at 0.1 µM (GSPT1): 134%
- GSPT1 protein level (% of DMSO control) at 1 µM (GSPT1): 23%
- viability at 0.4 µM (Molm-13 cells; Homo sapiens, 72 h, MOLM-13, 0.4 μM, 3 days): 50%
- IC50 (Molm-13 cells; Homo sapiens): ~0.8 µM
- effect on cell viability (Molm-13 cells; 1 μM (FIG. 5)): reduced cell viability
- inhibition at 0.1 µM (TNF-α): 79%
- inhibition at 0.1 µM (IL-1β): 78%
- fold induction at 0.1 µM (IL-2): 1.4

Structure (SMILES): O=C1CCCC(N2Cc3cc(CNC(=O)Nc4cccc(Cl)c4)ccc3C2=O)C(=O)N1 (centres unmarked) [Compound 3]
- inhibition at 0.1 µM (IL-6): 27%
- viability at 1 µM (H1048 cells): 47.1%
- viability at 10 µM (H1048 cells): 6.25%
- GSPT1 protein level (% of DMSO control) at 0.1 µM (GSPT1): 95.5%
- GSPT1 protein level (% of DMSO control) at 1 µM (GSPT1): 46.8%
- viability at 0.6 µM (Molm-13 cells; Homo sapiens, 72 h, 3 days): 50%
- IC50 (Molm-13 cells; Homo sapiens): ~1 µM
- effect on cell viability (Molm-13 cells; 1 μM (FIG. 5)): reduced cell viability
- inhibition at 0.1 µM (TNF-α): 59%
- inhibition at 0.1 µM (IL-1β): 59%
- fold induction at 0.1 µM (IL-2): 1.4

Structure (SMILES): CCCNC(=O)NCc1ccc2c(c1)CN([C@H]1CCCC(=O)NC1=O)C2=O [Compound 4, (S)-1-((2-(2,7-dioxoazepan-3-yl)-1-oxoisoindolin-5-yl)methyl)-3-propylurea]
- inhibition at 1 µM (IL-6): 33%
- viability at 1 µM (H1048 cells): 103%
- viability at 10 µM (H1048 cells): 97.5%
- GSPT1 protein level (% of DMSO control) at 0.1 µM (GSPT1): 214%
- GSPT1 protein level (% of DMSO control) at 1 µM (GSPT1): 116%
- inhibition at 1 µM (TNF-α): 44%
- inhibition at 1 µM (IL-1β): 39%
- fold induction at 1 µM (IL-2): 1.5

Structure (SMILES): Cc1c(Cl)cccc1NC(=O)NCc1ccc2c(c1)CN([C@H]1CCCC(=O)NC1=O)C2=O [Compound 5, (S)-1-(3-chloro-2-methylphenyl)-3-((2-(2,7-dioxoazepan-3-yl)-1-oxoisoindolin-5-yl)methyl)urea]
- inhibition at 1 µM (IL-6): 99%
- viability at 1 µM (H1048 cells): 27.3%
- viability at 10 µM (H1048 cells): 2.36%
- GSPT1 protein level (% of DMSO control) at 0.1 µM (GSPT1): 80.2%
- GSPT1 protein level (% of DMSO control) at 1 µM (GSPT1): 15.7%
- viability at 0.6 µM (Molm-13 cells; Homo sapiens, 72 h, 3 days): 50%
- inhibition at 1 µM (TNF-α): 92%
- inhibition at 1 µM (IL-1β): 90%
- fold induction at 1 µM (IL-2): 1.3

Structure (SMILES): O=C1CCC[C@H](N2Cc3cc(CNC(=O)Nc4ccc(F)c(Cl)c4)ccc3C2=O)C(=O)N1 [Compound 6, (S)-1-(3-chloro-4-fluorophenyl)-3-((2-(2,7-dioxoazepan-3-yl)-1-oxoisoindolin-5-yl)methyl) urea]
- inhibition at 1 µM (IL-6): 77%
- viability at 1 µM (H1048 cells): 45.7%
- viability at 10 µM (H1048 cells): 5.42%
- GSPT1 protein level (% of DMSO control) at 0.1 µM (GSPT1): 113%
- GSPT1 protein level (% of DMSO control) at 1 µM (GSPT1): 37.9%
- viability at 0.7 µM (Molm-13 cells; Homo sapiens, 72 h, MOLM-13, 0.7 μM, 3 days): 50%
- inhibition at 1 µM (TNF-α): 65%
- inhibition at 1 µM (IL-1β): 64%
- fold induction at 1 µM (IL-2): 1.3

Structure (SMILES): Cc1ccc(CC(=O)NCc2ccc3c(c2)CN([C@H]2CCCC(=O)NC2=O)C3=O)cc1Cl [Compound 7, (S)-2-(3-chloro-4-methylphenyl)-N-((2-(2,7-dioxoazepan-3-yl)-1-oxoisoindolin-5-yl)methyl)acetamide]
- inhibition at 1 µM (IL-6): 73%
- viability at 1 µM (H1048 cells): 44.1%
- viability at 10 µM (H1048 cells): 7.25%
- GSPT1 protein level (% of DMSO control) at 0.1 µM (GSPT1): 83.3%
- GSPT1 protein level (% of DMSO control) at 1 µM (GSPT1): 18.5%
- viability at 1 µM (Molm-13 cells; Homo sapiens, 72 h, MOLM-13, 1 μM, 3 days): 70%
- inhibition at 1 µM (TNF-α): 59%
- inhibition at 1 µM (IL-1β): 56%
- fold induction at 1 µM (IL-2): 1

Structure (SMILES): O=C1CCC[C@H](N2Cc3cc(CNC(=O)Nc4ccc(C(F)(F)F)c(Cl)c4)ccc3C2=O)C(=O)N1 [Compound 12, (S)-1-(3-chloro-4-(trifluoromethyl)phenyl)-3-((2-(2,7-dioxoazepan-3-yl)-1-oxoisoindolin-5-yl)methyl)urea]
- inhibition at 1 µM (IL-6): 90%
- GSPT1 protein level (% of DMSO control) at 1 µM (GSPT1): 18.6%
- viability at 10 µM (Molm-13 cells; Homo sapiens, 72 h, MOLM-13, 10 μM, 3 days): 11%
- inhibition at 1 µM (TNF-α): 59%
- inhibition at 1 µM (IL-1β): 75%
- fold induction at 1 µM (IL-2): 1.5

Structure (SMILES): Nc1cccc2c1C(=O)N(C1CCC(=O)NC1=O)C2=O (centres unmarked) [pomalidomide, reference compound]
- reduction of IL-6 levels (IL-6; LPS-stimulated PBMCs, 10 μM (FIG. 3)): under 60%
- effect on cell viability (Molm-13 cells; 10 μM (FIG. 5)): no effect on cellular viability
- reduction of expression of TNF-α (TNF-α; LPS-stimulated PBMCs, 10 μM (FIG. 4)): ~30%
- reduction of expression of IL-1-b (IL-1β; LPS-stimulated PBMCs, 10 μM (FIG. 2)): under 80%
